This passage reports IC50 results from US9096548B2, “Pyrazine amide compounds” (Boehringer Ingelheim International GmbH, priority 2013, dated 2015).

Structures can show the parent of a compound that is named as a salt.

For one test, the target named is T1, ENaC (Epithelial Sodium Channel) (Mus musculus, UniProt Q61180+Q9WU38+Q9WU39).
T1 construct: Mouse kidney M−1 cells were cultivated in DMEM; endogenous in cells; host or cells: Mouse kidney M-1 cells, cultivated with dexamethasone on transwell filters
T1 sequence (Q61180 1-699): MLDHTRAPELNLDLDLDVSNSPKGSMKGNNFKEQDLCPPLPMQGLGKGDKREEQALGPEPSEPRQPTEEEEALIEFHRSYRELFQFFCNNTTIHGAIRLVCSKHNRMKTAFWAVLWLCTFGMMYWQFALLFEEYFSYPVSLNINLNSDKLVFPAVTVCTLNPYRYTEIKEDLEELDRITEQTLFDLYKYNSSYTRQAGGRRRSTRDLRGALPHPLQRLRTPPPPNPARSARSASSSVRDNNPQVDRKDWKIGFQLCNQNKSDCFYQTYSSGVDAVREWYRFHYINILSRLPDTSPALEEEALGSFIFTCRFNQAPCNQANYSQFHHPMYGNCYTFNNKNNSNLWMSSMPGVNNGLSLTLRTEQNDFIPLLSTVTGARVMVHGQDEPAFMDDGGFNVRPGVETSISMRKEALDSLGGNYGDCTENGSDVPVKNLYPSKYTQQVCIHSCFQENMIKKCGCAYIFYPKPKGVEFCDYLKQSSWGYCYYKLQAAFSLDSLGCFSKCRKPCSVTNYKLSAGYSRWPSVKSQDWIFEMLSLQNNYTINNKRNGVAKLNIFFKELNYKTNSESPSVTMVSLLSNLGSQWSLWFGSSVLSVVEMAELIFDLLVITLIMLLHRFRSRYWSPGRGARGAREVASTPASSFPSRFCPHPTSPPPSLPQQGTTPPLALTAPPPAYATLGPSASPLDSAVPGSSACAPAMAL
T1 sequence (Q9WU38 1-638): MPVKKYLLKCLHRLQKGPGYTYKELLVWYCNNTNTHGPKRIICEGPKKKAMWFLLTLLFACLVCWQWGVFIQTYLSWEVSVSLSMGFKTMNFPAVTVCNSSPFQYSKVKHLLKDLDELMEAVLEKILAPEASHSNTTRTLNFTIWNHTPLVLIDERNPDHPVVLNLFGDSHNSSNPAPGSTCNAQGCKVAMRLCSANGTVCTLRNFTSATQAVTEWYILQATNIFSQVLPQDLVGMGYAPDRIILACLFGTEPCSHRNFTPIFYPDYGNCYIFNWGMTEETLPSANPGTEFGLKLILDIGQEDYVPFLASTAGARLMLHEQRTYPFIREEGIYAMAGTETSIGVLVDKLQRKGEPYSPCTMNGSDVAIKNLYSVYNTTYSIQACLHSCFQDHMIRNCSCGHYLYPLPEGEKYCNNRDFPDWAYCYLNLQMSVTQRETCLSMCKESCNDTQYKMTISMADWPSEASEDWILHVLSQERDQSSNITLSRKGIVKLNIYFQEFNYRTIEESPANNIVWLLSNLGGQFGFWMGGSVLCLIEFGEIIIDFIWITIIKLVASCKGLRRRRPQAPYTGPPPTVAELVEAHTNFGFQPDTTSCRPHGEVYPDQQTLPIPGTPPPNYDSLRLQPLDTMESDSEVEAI
T1 sequence (Q9WU39 1-655): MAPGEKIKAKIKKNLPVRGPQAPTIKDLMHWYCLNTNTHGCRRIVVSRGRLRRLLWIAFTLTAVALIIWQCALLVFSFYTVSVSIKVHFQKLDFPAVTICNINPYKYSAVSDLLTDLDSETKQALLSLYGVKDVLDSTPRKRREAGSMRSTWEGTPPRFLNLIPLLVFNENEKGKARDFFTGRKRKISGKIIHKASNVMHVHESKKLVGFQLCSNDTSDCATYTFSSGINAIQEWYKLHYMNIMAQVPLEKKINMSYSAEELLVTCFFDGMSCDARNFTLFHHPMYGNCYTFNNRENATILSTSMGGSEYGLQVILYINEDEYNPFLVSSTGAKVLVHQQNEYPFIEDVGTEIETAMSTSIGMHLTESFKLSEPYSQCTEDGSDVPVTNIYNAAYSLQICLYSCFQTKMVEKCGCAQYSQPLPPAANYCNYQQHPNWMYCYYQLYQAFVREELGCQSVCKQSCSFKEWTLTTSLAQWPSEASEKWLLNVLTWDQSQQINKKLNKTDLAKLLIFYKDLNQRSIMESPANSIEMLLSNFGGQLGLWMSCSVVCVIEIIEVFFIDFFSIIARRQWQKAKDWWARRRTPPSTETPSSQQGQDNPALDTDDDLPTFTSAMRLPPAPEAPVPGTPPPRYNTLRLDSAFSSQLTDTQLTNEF
In words: Ussing Chamber assay (short circuit current, amiloride sensitive I_SC). The settings on record: Ussing chamber, mouse kidney M-1 cells, short circuit current, compound added to the apical solution; read-out: IC50. Format: cell-based. As for the experimental part:
The IC50 values of the example compounds given above were determined in the Ussing Chamber assay.
Ussing Chamber: Mouse kidney M−1 cells were cultivated in DMEM containing 5% FCS and 5 μM dexamethasone for 10 to 12 days on polyester transwell filters. Filters were inserted into a teflon-coated well-plate which fit into the ussing chamber system. Prior to measurement the medium of M−1 cells was replaced with Caco-2 transport buffer (Invitrogen, Germany). During measurements, the Ussing chamber temperature was kept at 37° C. Short circuit currents (I_sc) were measured in the voltage-clamp mode with the software package Lab View for data acquisition and analysis. The transepithelial electrical resistance (TEER) was determined by the application of voltage steps of ±5 mV every 5 sec. Compounds were administered at a final concentration of 3 μM or at increasing concentrations (1-3-10 μM) to the apical solution. At the end of each experiment the amiloride sensitive I_SC was measured by adding 3 μM amiloride to the apical compartment. Results are expressed as inhibition in percent of the amiloride effect or as IC50.
Take `COC(=O)CCNC(=O)c1ccc(CCC[N+]2(CCCc3ccc(OC)cc3)CCCC(NC(=O)c3nc(Cl)c(N)nc3N)C2)cc1` (stereo not shown) [Example 5.8]: the IC50 turned out to be 0.024 µM. On the same count and under the same terms, to `COCCN(C)C(=O)COc1ccc(CCC[N+]2(CCCc3ccc(OCC(=O)N(C)CCOC)cc3)CCC[C@H](NC(=O)c3nc(Cl)c(N)nc3N)C2)cc1` [Example 6.16] belongs 0.042 µM; to `CN1CCOC(CNC(=O)COc2ccc(CCC[N+]3(CCCc4ccc(OCC(=O)NCC5CN(C)CCO5)cc4)CCC[C@H](NC(=O)c4nc(Cl)c(N)nc4N)C3)cc2)C1` (stereo partly shown) [Example 6.47], 0.011 µM.

Turning to `CN(Cc1cccnc1)C(=O)COc1ccc(CCC[N+]2(CCCc3ccc(OCC(=O)N(C)Cc4cccnc4)cc3)CCC[C@H](NC(=O)c3nc(Cl)c(N)nc3N)C2)cc1` [Example 6.27], the IC50 turned out to be 0.017 µM. Still for that read-out and setting: to `COc1ccc(CCC[N+]2(C)CC(NC(=O)c3nc(Cl)c(N)nc3N)[C@H](c3ccc(C)cc3)C2)cc1` (stereo partly shown) [Example 3.8] belongs 0.6 µM; to `Nc1nc(N)c(C(=O)N[C@H]2CCC[N+](CCCc3ccc(OCC(=O)N4CCC(O)(CO)CC4)cc3)(CCCc3ccc(OCC(=O)N4CCC(O)(CO)CC4)cc3)C2)nc1Cl` [Example 6.36], 0.067 µM; to `CN(CCO)C(=O)COc1ccc(CCC[N+]2(CCCc3ccc(OCC(=O)N(C)CCO)cc3)CCC[C@H](NC(=O)c3nc(Cl)c(N)nc3N)C2)cc1` [Example 6.61], 0.108 µM. Same read-out and setting: with `COc1ccc(CCC[N+]2(CCCc3ccccc3)CCCC(NC(=O)c3nc(Cl)c(N)nc3N)C2)cc1` (stereo not shown) [Example 3.5] the figure was 0.006 µM; with `COc1ccc(CCC[N+](C)(CCCc2ccc(OC)cc2)[C@@H]2C[C@H]2NC(=O)c2nc(Cl)c(N)nc2N)cc1` [Example 2.1], 0.08 µM; with `COc1ccc(CCC[N+](C)(CCCc2ccc(OC)cc2)C[C@H](C)NC(=O)c2nc(Cl)c(N)nc2N)cc1` [Example 2.2], 0.13 µM. Still for that read-out and setting: to `COCCN(CCOC)C(=O)COc1ccc(CCC[N+]2(CCCc3ccc(OCC(=O)N(CCOC)CCOC)cc3)CCC[C@H](NC(=O)c3nc(Cl)c(N)nc3N)C2)cc1` [Example 6.21] belongs 0.023 µM; to `Nc1nc(N)c(C(=O)NC2CCC[N+](CCc3c[nH]c4ccccc34)(CCc3c[nH]c4ccccc34)C2)nc1Cl` (stereo not shown) [Example 10.1, 3-[(3,5-Diamino-6-chloro-pyrazine-2-carbonyl)-amino]-1,1-bis-[2-(1H-indol-3-yl)-ethyl]-piperidinium chloride], 0.14 µM; to `Nc1nc(N)c(C(=O)N[C@H]2CCC[N+](CCCc3ccc(OCC(=O)NCc4ccccn4)cc3)(CCCc3ccc(OCC(=O)NCc4ccccn4)cc3)C2)nc1Cl` [Example 6.62], 0.005 µM.

The same test, now with this note: Ussing chamber, mouse kidney M-1 cells, short circuit current; unit inferred; read-out: IC50.
In the case of `CCOc1ccc(CCC[N+]2(CCCc3ccc(OCC)cc3)CCCC(NC(=O)c3nc(Cl)c(N)nc3N)C2)cc1` (stereo not shown) [Example 9.2, 3-[(3,5-Diamino-6-chloro-pyrazine-2-carbonyl)-amino]-1,1-bis-[3-(4-ethoxy-phenyl)-propyl]-piperidinium chloride], the IC50 was 0.026 µM.

Take `COC(=O)COc1ccc(CCC[N+]2(CCCc3ccc(OCC(=O)O)cc3)CCCC(NC(=O)c3nc(Cl)c(N)nc3N)C2)cc1` (stereo not shown) [Example 8, 1-[3-(4-Carboxymethoxy-phenyl)-propyl]-3-[(3,5-diamino-6-chloro-pyrazine-2-carbonyl)amino]-1-[3-(4-methoxycarbonylmethoxy-phenyl)-propyl]-piperidinium trifluoroacetate]: the IC50 is 0.165 µM. On the same count and under the same terms, to `Cn1ccnc1CNC(=O)COc1cccc(CCC[N+]2(CCCc3cccc(OCC(=O)NCc4nccn4C)c3)CCC[C@H](NC(=O)c3nc(Cl)c(N)nc3N)C2)c1` [Example 10.11, (S)-3-[(3,5-Diamino-6-chloro-pyrazine-2-carbonyl)-amino]-1,1-bis-[3-(3-{[(1-methyl-1H-imidazol-2-ylmethyl)-carbamoyl]-methoxy}-phenyl)-propyl]-piperidinium hydroxide] belongs 0.007 µM. Same read-out and setting: to `Nc1nc(N)c(C(=O)NC2CCC[N+](CCCc3ccc(OCCOCCOCCOCCOCCO)cc3)(CCCc3ccc(OCCOCCOCCOCCOCCO)cc3)C2)nc1Cl` (stereo not shown) [Example 9.1, 3-[(3,5-Diamino-6-chloro-pyrazine-2-carbonyl)-amino]-1,1-bis-(3-{4-[2-(2-{2-[2-(2-hydroxy-ethoxy)-ethoxy]-ethoxy}-ethoxy)-ethoxy]-phenyl}-propyl)-piperidinium chloride] belongs 0.111 µM; to `Nc1nc(N)c(C(=O)NC2CCC[N+](CCCc3ccc(OCCOCCOCCO)cc3)(CCCc3ccc(OCCOCCOCCO)cc3)C2)nc1Cl` (stereo not shown) [Example 9, 3-[(3,5-Diamino-6-chloro-pyrazine-2-carbonyl)-amino]-1,1-bis-[3-(4-{2-[2-(2-hydroxyethoxy)-ethoxy]-ethoxy}-phenyl)-propyl]-piperidinium chloride], 0.095 µM.

Still in this test, the particulars now being: Ussing chamber, mouse kidney M-1 cells, short circuit current; value printed in the example text with μM; read-out: IC50.
On to `COc1ccc(CCC[N+](C)(CCCc2ccc(OC)cc2)C[C@H](CC(=O)O)NC(=O)c2nc(Cl)c(N)nc2N)cc1` [Example 7.2, {(S)-3-Carboxy-2-[(3,5-diamino-6-chloro-pyrazine-2-carbonyl)-amino]-propyl}-bis-[3-(4-methoxy-phenyl)-propyl]-methyl-ammonium], for which the IC50 came to 1.38 µM. On the same count and under the same terms, to `COc1ccc(CCC[N+]2(CCCc3ccc(C(=O)[O-])cc3)CCCC(NC(=O)c3nc(Cl)c(N)nc3N)C2)cc1` (stereo not shown) [Example 5.1, 1-[3-(4-Carboxy-phenyl)-propyl]-3-[(3,5-diamino-6-chloro-pyrazine-2-carbonyl)-amino]-1-[3-(4-methoxy-phenyl)-propyl]-piperidinium] belongs 0.11 µM; to `COC(=O)C[N+]1(CCCc2ccc(OC)cc2)CCCC(NC(=O)c2nc(Cl)c(N)nc2N)C1` (stereo not shown) [Example 14, 3-[(3,5-Diamino-6-chloro-pyrazine-2-carbonyl)-amino]-1-methoxycarbonylmethyl-1-[3-(4-methoxy-phenyl)-propyl]-piperidinium chloride], 0.137 µM. As to `COC(=O)COc1ccc(CCC[N+]2(CCCc3ccc(OCC(=O)OC)cc3)CCCC(NC(=O)c3nc(Cl)c(N)nc3N)C2)cc1` (stereo not shown) [Example 6, 3-[(3,5-Diamino-6-chloro-pyrazine-2-carbonyl)-amino]-1,1-bis-[3-(4-methoxycarbonylmethoxy-phenyl)-propyl]-piperidinium trifluoroacetate], the IC50 amounted to 0.02 µM.

For orientation: IC50 means the concentration at which inhibition is half-maximal.
